Where two headings read alike, the source gives them in different places.
What was measured:
[1] = tested on: P. aeruginosa; experiment: P. aeruginosa cytotoxicity whole cell assay (J774 cells, LDH release); conditions: relative to vehicle treated cells infected with wild type P. aeruginosa
[2] = target: T1, SlyA (Escherichia coli, UniProt P0A8W2); experiment: biochemical; format: binding, E. coli
T1 sequence (P0A8W2 1-144): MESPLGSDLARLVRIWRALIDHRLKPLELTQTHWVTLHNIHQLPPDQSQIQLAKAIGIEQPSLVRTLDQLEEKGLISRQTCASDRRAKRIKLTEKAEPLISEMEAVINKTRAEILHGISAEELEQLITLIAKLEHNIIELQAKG

[3] = target: LcrF (VirF) (Yersinia pestis, UniProt P28808); experiment: biochemical; format: binding, Y. pseudotuberculosis
[4] = target: T2, ExsA (Pseudomonas aeruginosa, UniProt P26993); experiment: Chemiluminescence-based ExsA-DNA binding assay; design: species or system P. aeruginosa
T2 construct: made in house
T2 sequence (P26993 1-278): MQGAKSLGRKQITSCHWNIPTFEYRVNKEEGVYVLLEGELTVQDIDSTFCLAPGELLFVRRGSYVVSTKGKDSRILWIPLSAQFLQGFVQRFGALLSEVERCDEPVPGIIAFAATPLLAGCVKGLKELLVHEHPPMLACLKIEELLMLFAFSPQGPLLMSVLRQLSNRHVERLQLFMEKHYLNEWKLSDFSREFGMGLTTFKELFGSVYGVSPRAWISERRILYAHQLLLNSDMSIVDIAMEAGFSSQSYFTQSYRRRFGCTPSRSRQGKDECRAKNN

[5] = target: T3, SoxS (Escherichia coli, UniProt P0A9E2); experiment: Electrophoretic mobility shift assay (EMSA) with SoxS; format: binding; conditions: 50 ug/ml compound, 5 nM SoxS
T3 sequence (P0A9E2 1-107): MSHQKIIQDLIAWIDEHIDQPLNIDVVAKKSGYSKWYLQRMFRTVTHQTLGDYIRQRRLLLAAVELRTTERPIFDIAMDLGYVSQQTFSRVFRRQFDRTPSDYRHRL

[6] = tested on: uncut plasmid DNA; experiment: Qualitative agarose gel DNA intercalation assay; format: binding; conditions: 100 ng uncut plasmid DNA, compared with a known DNA intercalator
[7] = target: T3, SoxS; experiment: Chemiluminescence-based SoxS-DNA binding assay; design: made in house; species or system E. coli
[8] = tested on: E. coli UPEC strain C189; experiment: Ascending pyelonephritis model of infection (Example 3); format: in vivo; conditions: female CD1 mice, oral dosing at infection and once a day for 4 days, 5-day infection
[9] = tested on: Y. pseudotuberculosis; experiment: microbe, parasite or virus in culture; conditions: Yersinia pseudotuberculosis, J774, read-out: % Cytotoxicity
[10] = target: T4, Rob (Escherichia coli, UniProt P0ACI0); experiment: Chemiluminescence-based Rob-DNA binding assay; design: species or system E. coli; conditions: Table 10
T4 sequence (P0ACI0 1-289): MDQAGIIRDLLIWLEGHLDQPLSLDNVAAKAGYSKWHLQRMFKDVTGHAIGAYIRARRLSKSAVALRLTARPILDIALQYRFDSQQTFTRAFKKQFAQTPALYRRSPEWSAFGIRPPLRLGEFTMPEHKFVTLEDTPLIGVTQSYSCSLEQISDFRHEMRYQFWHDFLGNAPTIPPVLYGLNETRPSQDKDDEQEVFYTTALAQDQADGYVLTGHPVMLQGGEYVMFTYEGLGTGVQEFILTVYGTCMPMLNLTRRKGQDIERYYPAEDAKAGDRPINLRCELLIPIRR

[11] = target: T5, Rma (Salmonella typhimurium, UniProt H9L484); experiment: Chemiluminescence-based Rma-DNA binding assay; design: species or system S. typhimurium; conditions: Table 10
T5 construct: fused on or other part: 6-histidine tag
T5 sequence (H9L484 1-113): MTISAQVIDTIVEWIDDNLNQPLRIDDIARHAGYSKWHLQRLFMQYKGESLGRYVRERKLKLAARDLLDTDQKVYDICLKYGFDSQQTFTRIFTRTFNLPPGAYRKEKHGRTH

[12] = tested on: Y. pseudotuberculosis; conditions: in vivo, sc, 25 mg/kg
[13] = tested on: Y. pseudotuberculosis; conditions: in vivo, sc, 25 mg/kg; remark: listed apart in the source
[14] = EC50 for inhibition of LcrF(VirF)-DNA binding
[15] = Y. pseudotuberculosis VirF EC50
[16] = Table 11, subsequent assay, read-out: P. aeruginosa ExsA EC50
[17] = read-out: % Inhibition (SoxS binding to DNA)
[18] = Table 7, cell-free system, read-out: ExsA EC50
[19] = dose response analysis (footnote c), read-out: in vitro SoxS activity: concentration necessary to inhibit DNA-protein binding by 50% (EC50)
[20] = compound screening concentration of 50 μg/ml (footnote b), read-out: in vitro SoxS activity: percent inhibition of DNA-protein binding

Sequence of LcrF (VirF) (P28808 whole entry, looked up): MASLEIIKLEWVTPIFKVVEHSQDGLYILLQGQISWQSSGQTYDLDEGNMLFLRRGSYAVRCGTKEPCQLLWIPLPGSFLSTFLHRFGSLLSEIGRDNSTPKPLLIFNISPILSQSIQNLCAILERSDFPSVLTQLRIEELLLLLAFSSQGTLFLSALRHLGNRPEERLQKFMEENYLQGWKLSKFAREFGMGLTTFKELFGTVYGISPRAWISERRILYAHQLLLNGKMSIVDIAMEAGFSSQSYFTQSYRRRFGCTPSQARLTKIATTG

CC(=O)c1ccc(/C=C/C(=O)Nc2ccc(-c3nc4ccc([N+](=O)[O-])cc4n3O)cc2)cc1 [AJ, (E)-3-(4-Acetyl-phenyl)-N-[4-(1-hydroxy-6-nitro-H-benzoimidazol-2-yl)-phenyl]-acrylamide]
Cytotoxicity at 50 μg/mL Pseudomonas [1]: ** (reduced P. aeruginosa cytotoxicity below 75% of untreated, wild type levels at 50 mg/mL)
EC50 [2]: > 15.1 µM
EC50 [3, 14]: 10 to 25 µM
EC50 [3, 15]: < 5 µM
EC50 [4, 16]: < 5 µM

O=[N+]([O-])c1ccc2nc(-c3ccco3)n(O)c2c1 [AU]
activity against SoxS in vitro in an EMSA [5]: very active
ability to intercalate DNA [6]: not found to intercalate DNA

O=C(Nc1ccc(-c2nc3ccc([N+](=O)[O-])cc3n2O)cc1)c1ccccc1 [A]
inhibition at 50 µg/mL [7, 17]: > 70%
EC50 [3, 14]: 10 to 25 µM
EC50 [4, 18]: 10 to 25 µM

NC(=O)c1ccc2nc(-c3ccccc3)n(O)c2c1 [BB]
activity against SoxS in vitro in an EMSA [5]: moderately active
inhibition at 50 µg/mL [7, 17]: 0 to 29%

NC(=O)c1ccc2nc(-c3ccco3)n(O)c2c1 [BK]
activity against SoxS in vitro in an EMSA [5]: lacked activity

CN(C)c1ccc(-c2nc3ccc([N+](=O)[O-])cc3n2O)cc1 [BP]
EC50 [7, 19]: > 5 µM
inhibition at 50 µg/mL [7, 17]: > 70%
ability to intercalate DNA [6]: not found to intercalate DNA
Efficacy (log10 decrease in the CFU/g kidney tissue) [8]: *** (exhibited a 0-1.0 log decrease in CFU/g)

O=C(O)Cn1c(-c2nc3ccc([N+](=O)[O-])cc3n2O)nc2ccccc21 [BS]
EC50 [7, 19]: 1 to 4.9 µM
Efficacy (log10 decrease in the CFU/g kidney tissue) [8]: *** (exhibited a 0-1.0 log decrease in CFU/g)

O=C(O)c1cccc(-c2nc3ccc([N+](=O)[O-])cc3n2O)c1 [BU]
EC50 [7, 19]: > 5 µM
Efficacy (log10 decrease in the CFU/g kidney tissue) [8]: *** (exhibited a 0-1.0 log decrease in CFU/g)

CC(=O)Nc1ccccc1-c1nc2ccc([N+](=O)[O-])cc2n1O [BX]
inhibition at 50 µg/mL [7, 17]: 30 to 69%
ability to intercalate DNA [6]: not found to intercalate DNA

COc1ccc(C(=O)Nc2ccc(-c3nc4ccc([N+](=O)[O-])cc4n3O)cc2)cc1 [B]
activity at 50 µg/mL [9]: < 75%
inhibition at 50 µg/mL [7, 20]: > 70%
EC50 [3, 14]: 10 to 25 µM
EC50 [4, 18]: > 25 µM
Efficacy (log10 decrease in the CFU/g kidney tissue) [8]: *** (exhibited a 0-1.0 log decrease in CFU/g)

CC(C)(C)C(=O)Nc1ccc(-c2nc3ccc([N+](=O)[O-])cc3n2O)cc1 [CK]
inhibition at 25 µg/mL ([7]; compound screening concentration of 25 μg/ml (footnote d), read-out: in vitro SoxS activity: percent inhibition of DNA-protein binding): > 70%
Efficacy (log10 decrease in the CFU/g kidney tissue) [8]: *** (exhibited a 0-1.0 log decrease in CFU/g)

N#Cc1ccc2nc(-c3ccc(NC(=O)/C=C/c4ccc(F)cc4)cc3)n(O)c2c1 [CM]
Cytotoxicity at 50 μg/mL Pseudomonas [1]: ** (reduced P. aeruginosa cytotoxicity below 75% of untreated, wild type levels at 50 mg/mL)
activity at 50 µg/mL [9]: 75 to 99%
EC50 [2]: > 15.1 µM
EC50 [3, 15]: 5.1 to 15 µM
EC50 [4, 16]: < 5 µM

O=C(Nc1ccc(-c2nc3ccc([N+](=O)[O-])cc3n2O)cc1)c1ccc(F)cc1 [C]
activity at 50 µg/mL [9]: 75 to 99%
EC50 [10]: 1 to 4.9 µM
EC50 ([7]; Table 10, read-out: SoxS EC50): 1 to 4.9 µM
EC50 [3, 14]: 10 to 25 µM
EC50 [11]: 1 to 4.9 µM
EC50 [4, 18]: < 10 µM
EC50 ([4]; Table 10, read-out: ExsA EC50): 1 to 4.9 µM

COc1cc(F)ccc1C(=O)Nc1ccc(-c2nc3ccc([N+](=O)[O-])cc3n2O)cc1 [DE]
Cytotoxicity at 50 μg/mL Pseudomonas [1]: * (reduced P. aeruginosa cytotoxicity to 99-75% of untreated, wild type levels at 50 mg/mL)
activity at 50 µg/mL [9]: 75 to 99%
EC50 [2]: > 15.1 µM
EC50 [3, 15]: < 5 µM
EC50 [4, 16]: < 5 µM

CCc1cc(-c2nc3ccc([N+](=O)[O-])cc3n2O)ccc1NC(=O)/C=C/c1ccc(C)cc1 [DP]
Cytotoxicity at 50 μg/mL Pseudomonas [1]: * (reduced P. aeruginosa cytotoxicity to 99-75% of untreated, wild type levels at 50 mg/mL)
activity at 50 µg/mL [9]: < 75%
EC50 [2]: > 15.1 µM
EC50 [3, 15]: < 5 µM
EC50 [4, 16]: 5.1 to 15 µM

Cc1ccc(C(=O)Nc2ccc(-c3nc4ccc([N+](=O)[O-])cc4n3O)cc2)cc1 [D]
activity at 50 µg/mL [9]: < 75%
EC50 [7, 19]: 1 to 4.9 µM
EC50 [3, 14]: 10 to 25 µM
EC50 [4, 18]: < 10 µM

O=C(/C=C/c1ccc(F)cc1)Nc1ccc(-c2nc3ncc([N+](=O)[O-])cc3n2O)c(F)c1 [EH]
Cytotoxicity at 50 μg/mL Pseudomonas [1]: * (reduced P. aeruginosa cytotoxicity to 99-75% of untreated, wild type levels at 50 mg/mL)
activity at 50 µg/mL [9]: < 75%
EC50 [2]: > 15.1 µM
EC50 [3, 15]: < 5 µM
EC50 [4, 16]: < 5 µM

N#Cc1ccc(C(=O)Nc2ccc(-c3nc4ccc([N+](=O)O)cc4n3O)cc2)cc1 [E]
activity at 50 µg/mL [9]: < 75%
EC50 [3, 14]: 10 to 25 µM
EC50 [4, 18]: 10 to 25 µM
Efficacy (log10 decrease in the CFU/g kidney tissue) [8]: ** (exhibited a 1.1-2.0 log decrease in CFU/g)

CC(=O)c1ccc(C(=O)Nc2ccc(-c3nc4ccc([N+](=O)O)cc4n3O)cc2)cc1 [F]
activity at 50 µg/mL [9]: < 75%
EC50 [3, 14]: 10 to 25 µM
percent of the starting weight of the infected mice [12]: approximately 100%
percent survival of infected mice [12]: 60%
Log Decrease in CFU/g Lung Tissue [13]: ** (key: ***: exhibited a 0-1.0 log decrease in the CFU/g of LcrF in lung tissue; **: exhibited a 1.1-2.0 log decrease in the CFU/g of LcrF in lung tissue; --: exhibited no efficacy)
EC50 [4, 18]: 10 to 25 µM
Efficacy (log10 decrease in the CFU/g kidney tissue) [8]: ** (exhibited a 1.1-2.0 log decrease in CFU/g)

Cc1ccc(-c2nc3ccc([N+](=O)[O-])cc3n2O)o1 [GC]
inhibition at 50 µg/mL [7, 20]: 30 to 69%
Efficacy (log10 decrease in the CFU/g kidney tissue) [8]: ** (exhibited a 1.1-2.0 log decrease in CFU/g)

O=C(Nc1ccc(-c2nc3ccc([N+](=O)O)cc3n2O)cc1)c1ccc(-c2cnco2)cc1 [H]
activity at 50 µg/mL [9]: < 75%
EC50 [3, 14]: 10 to 25 µM
percent of the starting weight of the infected mice [12]: approximately 100%
percent survival of infected mice [12]: 80%
Log Decrease in CFU/g Lung Tissue [13]: *** (key: ***: exhibited a 0-1.0 log decrease in the CFU/g of LcrF in lung tissue; **: exhibited a 1.1-2.0 log decrease in the CFU/g of LcrF in lung tissue; --: exhibited no efficacy)
EC50 [4, 18]: < 10 µM
Efficacy (log10 decrease in the CFU/g kidney tissue) [8]: ** (exhibited a 1.1-2.0 log decrease in CFU/g)

O=C(/C=C/c1ccc(F)cc1)Nc1ccc(-c2nc3ccc([N+](=O)[O-])cc3n2O)cc1 [M]
activity at 50 µg/mL [9]: < 75%
EC50 [3, 14]: < 10 µM
percent of the starting weight of the infected mice [12]: approximately 120%
percent survival of infected mice [12]: 80%
Log Decrease in CFU/g Lung Tissue [13]: ** (key: ***: exhibited a 0-1.0 log decrease in the CFU/g of LcrF in lung tissue; **: exhibited a 1.1-2.0 log decrease in the CFU/g of LcrF in lung tissue; --: exhibited no efficacy)
EC50 [4, 18]: < 10 µM
Efficacy (log10 decrease in the CFU/g kidney tissue) [8]: *** (exhibited a 0-1.0 log decrease in CFU/g)

Cc1ccc(/C=C/C(=O)Nc2ccc(-c3nc4ccc([N+](=O)O)cc4n3O)cc2)cc1 [S]
EC50 [2]: > 15.1 µM
EC50 [3, 14]: < 10 µM
EC50 [3, 15]: < 5 µM
EC50 [4, 18]: < 10 µM
EC50 [4, 16]: < 5 µM

O=C(/C=C/c1ccc(F)cc1F)Nc1ccc(-c2nc3ccc([N+](=O)[O-])cc3n2O)cc1 [V]
EC50 [2]: > 15.1 µM
EC50 [3, 14]: < 10 µM
EC50 [3, 15]: < 5 µM
EC50 [4, 18]: < 10 µM
EC50 [4, 16]: < 5 µM

From patent US20090131481A1, “Transcription Factor Modulating Compounds and Methods of Use Thereof” (Paratek Pharmaceuticals, Inc., published 2009)
